Data as given in US20220251134A1, “2,4,7-SUBSTITUTED-7-DEAZA-2'-DEOXY-2'-FLUOROARABINOSYL NUCLEOSIDE AND NUCLEOTIDE PRO-DRUGS AND USES THEREOF” (Southern Research Institute, priority 2019, published 2022).
Where two headings read alike, the source gives them in different places.

Tests used:
[1] = tested on: HBV in HepG2 2.2.15 cells; assay: HepG2 2.2.15 cell-based HBV replication assay (HBV virus yield, extracellular HBV DNA by real-time PCR); parameters: species or system HBV wild-type strain ayw1; conditions: for EC50 / EC90: Hepatitis B virus
Experimental: (§1) The HepG2 2.2.15 cell line is a stable human hepatoblastoma cell line that contains two copies of the HBV wild-type strain ayw1 genome and constitutively produces high levels of HBV. Cells were sub-cultured twice a week in Dulbecco's Modified Eagle's Medium (DMEM) supplemented with 10% FBS, 380 μg/mL G418, 2.0 mM L-Glutamine, 100 units/mL Penicillin, and 100 μg/mL Streptomycin. Total cell number and percent viability determinations were performed using a hemacytometer and trypan blue dye exclusion prior to each experiment set-up.
The primary anti-HBV assay was performed as previously described (Korba and Milman (1991) Antiviral Res. 15: 217-228; Korba and Gerin (1992) Antiviral Res. 19: 55-70) with modifications to use real-time PCR (TaqMan-based) to measure extracellular HBV DNA virion-associated released from HepG2 2.2.15 cells. Antiviral compounds blocking any late step of viral replication such as transcription, translation, pre-genome encapsidation, reverse transcription, particle assembly and release can be identified and characterized using this cell line. Briefly, HepG2 2.2.15 cells were seeded in 96-well microtiter plates at 1.5×10^4 cells/well in Dulbecco's Modified Eagle's Medium supplemented with 2% FBS, 2.0 mM L-Glutamine, 100 units/mL Penicillin, and 100 μg/mL Streptomycin. […] Three days post treatment with test article (DPV), cell culture medium was replaced with fresh medium containing the appropriately diluted test compounds. Six days following the initial administration of the test compounds, the cell culture supernatant was collected, treated with pronase and then used in a real-time TaqMan-based PCR assay. The PCR-amplified HBV DNA was detected by measuring fluorescent signal resulting from the exonucleolytic degradation of a quenched fluorescent probe molecule that hybridizes to the amplified HBV DNA.

[2] = Evaluation of cell viability (MTS) in HepG2 2.2.15 cells; assay type: cell-based, human; conditions: human
Experimental: as §1, with “set-up. Cell viability was always greater than 95% for experiment set-ups.” for “set-up.”
(§2) At experiment conclusion, MTS reagent (CellTiter®96 Reagent, Promega) reagent was added to culture wells (96 well microtiter plates) and permitted to incubate with cells for 2-4 hours at 37° C., 5% CO2. Each cell culture well was measured for MTS reagent reduction (color change, 490/650 nm) using a SpectraMax i3 plate reader (Molecular Devices).

HSV-1 Strain HF = assay: Antiviral activity against HSV-1 Strain HF in Vero cells; assay type: cell-based
[3] = Cytotoxicity (TC50) in Vero cells; assay type: cell-based; conditions: African green monkey, Table 2
HepG2 2.2.15 cells = assay: Evaluation of cell viability (MTS) in HepG2 2.2.15 cells; assay type: cell-based, human; conditions: Table 3; HBV virus yield assay
Experimental: as §1, with “set-up. Cell viability was always greater than 95% for experiment set-ups.” for “set-up.”
as §2

[4] = HepG2 2.2.15, Table 3, HBV virus yield assay, read-out: EC50
[5] = HepG2 2.2.15, Table 3, HBV virus yield assay, read-out: EC90
[6] = HepG2 2.2.15 cells, Table 3, HBV virus yield assay
[7] = HepG2 2.2.15, Table 1, HBV in HepG2 2.2.15 cells, read-out: EC50
[8] = Table 1, HBV in HepG2 2.2.15 cells, read-out: EC90
[9] = Table 1, HBV in HepG2 2.2.15 cells

Row | SMILES | EC50 ([1]; HepG2 2.2.15) | EC90 ([1]; HepG2 2.2.15) | CC50 ([2]; Table 3, HBV virus yield assay) | EC50 [1, 4] | EC90 [1, 5] | CC50 [2, 6] | also measured
1 | COC(=O)[C@H](C)NP(=O)(OC[C@H]1O[C@@H](n2ccc3c(N)nc(Cl)nc32)[C@@H](F)[C@@H]1O)Oc1ccccc1 (single isomer, unassigned) [Compound 9f] | 240 nM | > 10000 nM | > 10000 nM |  |  |  | 
2 | CCCCCCCC/C=C\CCCCCCCC(=O)Nc1nc(Cl)nc2c1ccn2[C@@H]1O[C@H](CO)[C@@H](O)[C@@H]1F [Compound 12b, N-(2-chloro-7-((2R,3S,4R,5R)-3-fluoro-4-hydroxy-5-(hydroxymethyl)tetrahydrofuran-2-yl)-7H-pyrrolo[2,3-d]-pyrimidin-4-yl)oleamide] |  |  |  | 130 nM | > 10000 nM | > 10000 nM | 
3 | CC(C)COC(=O)[C@H](C)NP(=O)(OC[C@H]1O[C@@H](n2ccc3c(N)nc(Cl)nc32)[C@@H](F)[C@@H]1O)Oc1ccccc1 (single isomer, unassigned) [Compound 9d] | 300 nM | > 10000 nM | > 10000 nM |  |  |  | 
4 | CCCCCCCCCCCCCCCCCC(=O)Nc1nc(Cl)nc2c1ccn2[C@@H]1O[C@H](CO)[C@@H](O)[C@@H]1F [Compound 12c, N-(2-chloro-7-((2R,3S,4R,5R)-3-fluoro-4-hydroxy-5-(hydroxymethyl)tetrahydrofuran-2-yl)-7H-pyrrolo[2,3-d]pyrimidin-4-yl)stearamide] |  |  |  | 530 nM | > 10000 nM | > 10000 nM | 
5 | CCC(CC)COC(=O)[C@H](C)NP(=O)(OC[C@H]1O[C@@H](n2ccc3c(N)nc(Cl)nc32)[C@@H](F)[C@@H]1O)Oc1ccccc1 (stereo partly drawn) [Compound 9a, 2-ethylbutyl ((((2R,3R,4S,5R)-5-(4-amino-2-chloro-7H-pyrrolo[2,3-d]pyrimidin-7-yl)-4-fluoro-3-hydroxytetrahydrofuran-2-yl)methoxy)(phenoxy)phosphoryl)-L-alaninate] | 160 nM | 1580 nM | > 10000 nM |  |  |  | 
6 | CCCCCCCCCCCC(=O)Nc1nc(Cl)nc2c1ccn2[C@@H]1O[C@H](CO)[C@@H](O)[C@@H]1F [Compound 12a, N-(2-chloro-7-((2R,3S,4R,5R)-3-fluoro-4-hydroxy-5-(hydroxymethyl)tetrahydrofuran-2-yl)-7H-pyrrolo[2,3-d]pyrimidin-4-yl)dodecanamide] |  |  |  | 80 nM | 950 nM | > 10000 nM | 
7 | Nc1nc(Cl)nc2c1ccn2[C@@H]1O[C@H](CO)[C@@H](O)[C@@H]1F [Compound 5, (2R,3R,4S,5R)-5-(4-amino-2-chloro-7H-pyrrolo[2,3-d]pyrimidin-7-yl)-4-fluoro-2-(hydroxymethyl)tetrahydrofuran-3-ol] |  |  |  | 60 nM |  |  | IC50 (HSV-1 Strain HF; Human alphaherpesvirus 1, Table 2): 650 nM; Selectivity Index (SI50) (TC50/IC50) (HSV-1 Strain HF; Table 2): >15.4; EC50 [1, 7]: 70 nM; EC90 [1, 8]: 1280 nM; Activity [1, 9]: Hi; Selectivity Index (SI50) (CC50/EC50) [1, 9]: >167; CC50 [3]: > 10000 nM; CC50 ([2]; Table 1, HepG2 2.2.15 cells): > 10000 nM; CC50 (HepG2 2.2.15 cells): > 10000 nM
8 | Nc1ccn([C@@H]2CS[C@H](CO)O2)c(=O)n1 [Compound 3TC, Lamivudine, reference compound] |  |  |  | 29 nM |  |  | EC50 [1, 7]: 29 nM; EC90 [1, 8]: 511 nM; CC50 ([2]; Table 1, HepG2 2.2.15 cells): > 2000 nM; CC50 (HepG2 2.2.15 cells): > 2000 nM
9 | C[C@H](NP(=O)(OC[C@H]1O[C@@H](n2ccc3c(N)nc(Cl)nc32)C(F)C1O)Oc1ccccc1)C(=O)OCc1ccccc1 (single isomer, unassigned) [Compound 9c] | 240 nM | > 10000 nM | > 10000 nM |  |  |  | 
10 | CCOC(=O)[C@H](C)NP(=O)(OC[C@H]1O[C@@H](n2ccc3c(N)nc(Cl)nc32)[C@@H](F)[C@@H]1O)Oc1ccccc1 (mixture of isomers) [Compound 9e, ethyl ((((2R,3R,4S,5R)-5-(4-amino-2-chloro-7H-pyrrolo[2,3-d]pyrimidin-7-yl)-4-fluoro-3-hydroxytetrahydro-furan-2-yl)methoxy)-(phenoxy)phosphoryl)-L-alaninate] | 140 nM | > 10000 nM | > 10000 nM |  |  |  | 
11 | CC(C)OC(=O)[C@H](C)NP(=O)(OC[C@H]1O[C@@H](n2ccc3c(N)nc(Cl)nc32)[C@@H](F)[C@@H]1O)Oc1ccccc1 (mixture of isomers) [Compound 9b, isopropyl ((((2R,3R,4S,5R)-5-(4-amino-2-chloro-7H-pyrrolo[2,3-d]pyrimidin-7-yl)-4-fluoro-3-hydroxytetrahydrofuran-2-yl)methoxy)(phenoxy)phosphoryl)-L-alaninate] | 90 nM | 1050 nM | > 10000 nM |  |  |  | 
12 | CCCC(CCC)C(=O)Nc1nc(Cl)nc2c1ccn2[C@@H]1O[C@H](CO)[C@@H](O)[C@@H]1F [Compound 12d, N-(2-chloro-7-((2R,3S,4R,5R)-3-fluoro-4-hydroxy-5-(hydroxymethyl)tetrahydrofuran-2-yl)-7H-pyrrolo[2,3-d]pyrimidin-4-yl)-2-propylpentanamide] |  |  |  | 2120 nM | > 10000 nM | > 10000 nM | 
13 | Nc1nc2c(ncn2COCCO)c(=O)[nH]1 [Acyclovir, acyclovir, reference compound] |  |  |  |  |  |  | IC50 (HSV-1 Strain HF; Table 2): 11400 nM; Selectivity Index (SI50) (TC50/IC50) (HSV-1 Strain HF; Table 2): >8.77; CC50 [3]: > 100000 nM
